The source of these data is the NIST ThermoML archive (doi:10.1016/j.jct.2016.01.003).

A short description of data set [1]: Molar enthalpy of transition or fusion. The following applies: Crystal; DSC.
For data set [2] the following is noted: Crystal.

Numbers after ± are expanded uncertainties.

`O=C1c2cccc(Cl)c2C(=O)N1c1ccccc1` [3-chloro-N-phenylphthalimide]: the “Molar enthalpy of transition or fusion” value in data set [1] was found to be 29.1 ± 0.99 kJ/mol. In addition, the mass density in data set [2] (298.15 K, 101.33 kPa, flotation method) is 1397 ± 2 kg/m3. Moreover, the Normal melting temperature in data set [2] (DTA) is 192.90 ± 1.1 °C.

As usually defined, the mass density is mass per unit of volume.
